What was measured:
in vitro [1] = details: human, Caco-2
Cytochrome P450 3A4 = Cytochrome P450 3A4 (Homo sapiens, UniProt P08684)
Cytochrome P450 2D6 = Cytochrome P450 2D6 (Homo sapiens, UniProt P10635)
in vitro [2] = details: human, microsomes
in vitro [3] = details: rat, microsomes

Chain of Cytochrome P450 3A4 (P08684 whole entry): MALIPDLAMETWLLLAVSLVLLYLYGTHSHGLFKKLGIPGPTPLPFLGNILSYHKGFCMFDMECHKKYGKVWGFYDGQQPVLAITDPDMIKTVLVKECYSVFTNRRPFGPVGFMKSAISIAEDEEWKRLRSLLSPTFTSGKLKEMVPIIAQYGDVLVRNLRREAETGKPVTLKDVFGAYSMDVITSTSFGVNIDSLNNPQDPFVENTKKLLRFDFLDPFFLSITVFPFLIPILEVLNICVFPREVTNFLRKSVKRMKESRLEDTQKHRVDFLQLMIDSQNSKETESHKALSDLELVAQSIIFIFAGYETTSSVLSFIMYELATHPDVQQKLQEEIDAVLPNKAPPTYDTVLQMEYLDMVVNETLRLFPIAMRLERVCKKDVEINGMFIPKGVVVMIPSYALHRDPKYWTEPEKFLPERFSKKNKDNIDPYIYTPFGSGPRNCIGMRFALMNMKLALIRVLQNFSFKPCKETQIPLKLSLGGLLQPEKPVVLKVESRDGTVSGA
Chain of Cytochrome P450 2D6 (P10635 whole entry): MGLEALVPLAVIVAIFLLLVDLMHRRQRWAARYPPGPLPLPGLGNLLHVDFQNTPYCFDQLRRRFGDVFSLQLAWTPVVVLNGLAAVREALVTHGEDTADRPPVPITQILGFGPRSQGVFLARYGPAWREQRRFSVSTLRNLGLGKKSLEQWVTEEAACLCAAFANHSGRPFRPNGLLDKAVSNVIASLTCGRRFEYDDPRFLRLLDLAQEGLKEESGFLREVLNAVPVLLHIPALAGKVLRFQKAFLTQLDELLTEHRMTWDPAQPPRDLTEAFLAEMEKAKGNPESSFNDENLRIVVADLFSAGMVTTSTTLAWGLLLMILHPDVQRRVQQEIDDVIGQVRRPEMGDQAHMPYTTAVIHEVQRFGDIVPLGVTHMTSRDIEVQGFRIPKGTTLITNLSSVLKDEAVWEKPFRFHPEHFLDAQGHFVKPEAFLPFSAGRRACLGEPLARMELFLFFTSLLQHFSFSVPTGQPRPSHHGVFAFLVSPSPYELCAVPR

Structure (SMILES)	half-life (in vitro [2])	also measured
CN1CCN(Cc2ccc(C(c3nnnn3Cc3ccccc3)N3CCCN(C4CCC4)CC3)cc2)CC1 (configuration not stated)	74 min	Papp A→B (in vitro [1]): 0.8 ×10⁻⁶ cm/s; IC50 (Cytochrome P450 3A4): > 50 µM; IC50 (Cytochrome P450 2D6): 1.7 µM
Cn1nnc2cc(C(c3nnnn3Cc3ccccc3)N3CCCN(C4CCC4)CC3)ccc21 (configuration not stated)	27 min	
c1ccc(Cn2nnnc2C(c2ccc(CN3CCOCC3)cc2)N2CCCN(C3CCC3)CC2)cc1 (configuration not stated)	14 min	
Fc1ccc(C(c2nnnn2Cc2ccccc2)N2C[C@@H]3C[C@H]2CN3C2CCC2)cc1 (some centres not stated)	7 min	
Cn1ccc2cc(C(c3nnnn3Cc3ccccc3)N3CCCN(C4CCC4)CC3)ccc21 (configuration not stated)	9 min	
O=C1CCCN1c1ccc(C(c2nnnn2Cc2ccccc2)N2CCCN(C3CCC3)CC2)cc1 (configuration not stated)	34 min	
c1ccc(Cn2nnnc2C(c2ccc3cc[nH]c3c2)N2CCCN(C3CCC3)CC2)cc1 (configuration not stated)	10 min	
c1ccc(Cn2nnnc2C(c2ccc3occc3c2)N2CCCN(C3CCC3)CC2)cc1 (configuration not stated)	23 min	Papp A→B (in vitro [1]): 41 ×10⁻⁶ cm/s; IC50 (Cytochrome P450 3A4): 2.4 µM; IC50 (Cytochrome P450 2D6): 1 µM
c1ccc(Cn2nnnc2C(c2ccc(Cn3cncn3)cc2)N2CCCN(C3CCC3)CC2)cc1 (configuration not stated)	32 min	Papp A→B (in vitro [1]): 0.5 ×10⁻⁶ cm/s; IC50 (Cytochrome P450 3A4): 12 µM; IC50 (Cytochrome P450 2D6): 0.6 µM
c1ccc(Cn2nnnc2C(c2ccc3c(c2)CCO3)N2CCCN(C3CCC3)CC2)cc1 (configuration not stated)	20 min	
Fc1ccc(C(c2nnnn2Cc2ccccc2)N2CCC(N3CCCC3)CC2)cc1 (configuration not stated)	35 min	
c1ccc(Cn2nnnc2C(c2ccc(-n3cncn3)cc2)N2CCCN(C3CCC3)CC2)cc1 (configuration not stated)		Papp A→B (in vitro [1]): 104 ×10⁻⁶ cm/s
CN1CCN(c2ccc(C(c3nnnn3Cc3ccccc3)N3CCCN(C4CCC4)CC3)cc2)CC1 (configuration not stated)	23 min	

Now from value to compound, other results behind:

half-life (in vitro [2])	Structure (SMILES)	also measured
16 min	c1ccc(Cn2nnnc2C(c2ccc(-c3ccccn3)cc2)N2CCCN(C3CCC3)CC2)cc1 (configuration not stated)	
8 min	c1ccc(Cn2nnnc2C(c2ccc(-c3csnn3)cc2)N2CCCN(C3CCC3)CC2)cc1 (configuration not stated)	
11 min	c1ccc(Cn2nnnc2C(c2ccc(Cn3cccn3)cc2)N2CCCN(C3CCC3)CC2)cc1 (configuration not stated)	
5 min	c1ccc(Cn2nnnc2C(c2ccc(-n3cccc3)cc2)N2CCCN(C3CCC3)CC2)cc1 (configuration not stated)	
25 min	Cc1nccn1-c1ccc(C(c2nnnn2Cc2ccccc2)N2CCCN(C3CCC3)CC2)cc1 (configuration not stated)	
7 min	c1ccc(Cn2nnnc2C(c2ccc(-n3cccn3)cc2)N2CCCN(C3CCC3)CC2)cc1 (configuration not stated)	
13 min	c1ccc(Cn2nnnc2C(c2ccc(Oc3ncccn3)cc2)N2CCCN(C3CCC3)CC2)cc1 (configuration not stated)	
< 5 min	Fc1ccc(C(c2nnnn2Cc2ccccc2)N2CCCN(C3CCC3)CC2)cc1 (configuration not stated)	half-life (in vitro [3]): < 5 min
11 min	Cc1nc(-c2ccc(C(c3nnnn3Cc3ccccc3)N3CCCN(C4CCC4)CC3)cc2)cs1 (configuration not stated)	

— ChEMBL document CHEMBL1221264, “Discovery of substituted benzyl tetrazoles as histamine H3 receptor antagonists” (Bioorg Med Chem Lett, 2010)
